Where two headings read alike, the source gives them in different places.
System: HEL cells (human acute myelocytic leukemia cell lines)
Assay: Cell-growth inhibition test: HEL cells
Type: cell-based
Details: read-out: IC50 (nM), Cell-Growth Inhibition Test: HEL Cells
Description: Under the following conditions, an in vitro cell-growth inhibition test was performed with respect to HEL cells (human acute myelocytic leukemia cell lines), NCI-H1417 cells (human small-cell lung cancer cell lines), and NCI-H146 cells (human small-cell lung cancer cell lines).
The cells with the Example compound or with dimethylsulfoxide alone were cultured at 37° C. in a 5% carbon-dioxide-containing incubator for 5 days (HEL cells) or 10 days (NCI-H1417 cells and NCI-H146 cells). After culture, the plate was allowed to stand at room temperature for 30 minutes, and 100 μL of the supernatant was removed from each well to leave 100 μL of the cell culture solution. To each well containing the remaining 100 μL of the cell culture solution, the same amount of CellTiter-Glo 2.0 Assay (Promega, Cat #: G9242) was added. The microplate was shaken with a plate mixer for 1 minute and then allowed to stand in a dark place for 10 minutes. Thereafter, the luminescence intensity of viable cells in each well was measured using a microplate reader (PerkinElmer, EnSpire). […] Cell growth rate(%)=T/C×100 • T: The luminescence intensity in a well to which the test compound was added (count per second) • C: The luminescence intensity in a well to which dimethylsulfoxide alone was added (count per second)

Structure (SMILES)	IC50 (Homo sapiens, HEL) [nM]	IC50 [nM]	also measured
CN(C)c1ccc(-c2ccc(C(=O)N3CC[C@H](N)C3)cc2-c2ccc(C#N)c(F)c2)cn1 [Example 100, 4-[5-[(3S)-3-aminopyrrolidine-1-carbonyl]-2-[6-(dimethylamino)-3-pyridyl]phenyl]-2-fluoro-benzonitrile]	12.8		
CC(C)(O)Cn1ccc2cc(-c3ccc(C(=O)N4CC5CNCC5C4)cc3-c3ccc(C#N)c(F)c3)c(F)c(F)c21 (stereo not drawn) [Example 203, 2′-(6,7-difluoro-1-(2-hydroxy-2-methylpropyl)-1H-indol-5-yl)-3-fluoro-5′-(octahydropyrrolo[3,4-c]pyrrole-2-carbonyl)-[1,1′-biphenyl]-4-carbonitrile]	2.45		
CCn1nnc2cc(-c3ccc(C(=O)N4[C@@H]5CC[C@H]4C[C@H](N)C5)cc3-c3ccc(C#N)c(F)c3)c(F)cc21 [Example 160, 5′-((3-endo)-3-amino-8-azabicyclo[3.2.1]octane-8-carbonyl)-2′-(1-ethyl-6-fluoro-1H-benzo[d][1,2,3]triazol-5-yl)-3-fluoro-[1,1′-biphenyl]-4-carbonitrile]		7.03	
CC(C)(O)Cn1ccc2cc(-c3ccc(C(=O)N4[C@H]5CC[C@@H]4[C@H](N)C5)cc3-c3ccc(C#N)c(F)c3)c(F)cc21 (single isomer, unassigned; isomer-b) [Example 171]	0.08		
CC(C)(O)Cn1ncc2cc(-c3ccc(C(=O)N4[C@@H]5CC[C@H]4C[C@@H](N)C5)cc3-c3ccc(C#N)c(F)c3)c(F)c(F)c21 [Example 188, 5′-((3-endo)-3-amino-8-azabicyclo[3.2.1]octane-8-carbonyl)-2′-(6,7-difluoro-1-(2-hydroxy-2-methylpropyl)-1H-indazol-5-yl)-3-fluoro-[1,1′-biphenyl]-4-carbonitrile]		5.95	
COCCc1ccc(-c2ccc(C(=S)N3CC[C@H](N)C3)cc2-c2ccc(C#N)c(F)c2)c(F)c1 [Example 94, 4-[5-[(3S)-3-aminopyrrolidine-1-carbothioyl]-2-[2-fluoro-4-(2-methoxyethyl)phenyl]phenyl]-2-fluoro-benzonitrile]	29.4		
Cn1cc(C(=O)O)c2cc(-c3ccc(C(=O)N4[C@@H]5CC[C@H]4[C@@H](N)C5)cc3-c3ccc(C#N)c(F)c3)c(F)cc21 (single isomer, unassigned) [Example 224]		46.2	
CN1CCOc2cc(-c3ccc(C(=O)N4C5CCC4CC(N)C5)cc3-c3ccc(C#N)c(F)c3)ccc21 (stereo not drawn) [Example 128, 4-[5-[(3-endo)-3-amino-8-azabicyclo[3.2.1]octane-8-carbonyl]-2-(4-methyl-2,3-dihydro-1,4-benzoxazin-7-yl)phenyl]-2-fluoro-benzonitrile]			IC50 (HEL cells): 5.7 nM
N#Cc1ccc(-c2cc(C(=O)N3CC[C@H](N)C3)ccc2-c2ccc(CC3(O)CC3)cc2)cc1 [Example 59, 4-[5-[(3S)-3-aminopyrrolidine-1-carbonyl]-2-[4-[(1-hydroxycyclopropyl)methyl]phenyl]phenyl]benzonitrile]	32		
N#Cc1ccc(-c2cc(C(=O)N3CC[C@H](N)C3)ccc2-c2ccc(C3(C4(O)CC4)CC3)cc2)cc1 [Example 68, 4-[5-[(3S)-3-aminopyrrolidine-1-carbonyl]-2-[4-[1-(1-hydroxycyclopropyl)cyclopropyl]phenyl]phenyl]benzonitrile]	23.9		
Cc1ccc(-c2ccc(C(=O)N3CC[C@H](N)C3)cc2-c2ccc([N+](=O)[O-])cc2)cc1 [Example 99, [(35)-3-aminopyrrolidin-1-yl]-[3-(4-nitrophenyl)-4-(p-tolyl)phenyl]methanone]			IC50 (HEL cells): 11 nM
CC(C)(C)n1nnc2cc(-c3ccc(C(=O)N4C5CCC4CC(N)C5)cc3-c3ccc(C#N)c(F)c3)c(F)cc21 (stereo not drawn) [Example 139, 5′-((3-endo)-3-amino-8-azabicyclo[3.2.1]octane-8-carbonyl)-2′-(1-(tert-butyl)-6-fluoro-1H-benzo[d][1,2,3]triazol-5-yl)-3-fluoro-[1,1′-biphenyl]-4-carbonitrile]		16.9	
COc1c(F)c(-c2ccc(C(=O)N3[C@@H]4CC[C@H]3C[C@@H](N)C4)cc2-c2ccc(C#N)c(F)c2)cc2cnn(CC(C)(C)O)c12 [Example 186, 5′-((3-endo)-3-amino-8-azabicyclo[3.2.1]octane-8-carbonyl)-3-fluoro-2′-(6-fluoro-1-(2-hydroxy-2-methylpropyl)-7-methoxy-1H-indazol-5-yl)-[1,1′-biphenyl]-4-carbonitrile]		6.3	
CC(C)n1c(=O)sc2cc(-c3ccc(C(=O)N4C5CCC4CC(N)C5)cc3-c3ccc(C#N)c(F)c3)ccc21 (stereo not drawn) [Example 138, 5′-((3-endo)-3-amino-8-azabicyclo[3.2.1]octane-8-carbonyl)-3-fluoro-2′-(3-isopropyl-2-oxo-2,3-dihydrobenzo[d]thiazol-6-yl)-[1,1′-biphenyl]-4-carbonitrile]		0.9	
N#Cc1ccc(-c2cc(C(=O)N3[C@@H]4CC[C@H]3C[C@H](N)C4)ccc2-c2ccc3cccnc3c2F)cc1F [Example 105, 4-[5-[(3-exo)-3-amino-8-azabicyclo[3.2.1]octane-8-carbonyl]-2-(8-fluoro-7-quinolyl)phenyl]-2-fluoro-benzonitrile]			IC50 (HEL cells): 5.74 nM
Cn1nnc2cc(-c3ccc(C(=O)N4[C@@H]5CC[C@H]4C[C@@H](N)C5)cc3-c3ccc(C#N)c(F)c3)c(F)c(F)c21 [Example 145, 5′-((3-endo)-3-amino-8-azabicyclo[3.2.1]octane-8-carbonyl)-2′-(6,7-difluoro-1-methyl-1H-benzo[d][1,2,3]triazol-5-yl)-3-fluoro-[1,1′-biphenyl]-4-carbonitrile]		1.81	
Cn1ncc2cc(-c3ccc(C(=O)N4[C@@H]5CC[C@H]4C[C@H](N)C5)cc3-c3ccc(C#N)c(F)c3)c(F)cc21 [Example 24, 4-[5-[(3-exo)-3-amino-8-azabicyclo[3.2.1]octane-8-carbonyl]-2-(6-fluoro-1-methyl-indazol-5-yl)phenyl]-2-fluoro-benzonitrile]			IC50 (HEL cells): 3.5 nM
Cn1cnc2cc(-c3ccc(C(=O)N4[C@@H]5CC[C@H]4C[C@@H](N)C5)cc3-c3ccc(C#N)c(F)c3)c(F)c(F)c21 [Example 126, 4-[5-[(3-endo)-3-amino-8-azabicyclo[3.2.1]octane-8-carbonyl]-2-(6,7-difluoro-1-methyl-benzimidazol-5-yl)phenyl]-2-fluoro-benzonitrile]			IC50 (HEL cells): 5.29 nM
Cc1ccc(-c2ccc(C(=O)N3CCC4(CNC4)C3)cc2-c2ccc(C#N)cc2)cc1 [Example 5, 4-[5-(2,7-diazaspiro[3.4]octane-7-carbonyl)-2-(p-tolyl)phenyl]benzonitrile]	34.8		
Cc1ccc(-c2ccc(C(=O)N3C4CCC3CC(N)C4)cc2-c2ccc(C#N)c(F)c2)c(F)c1F (stereo not drawn) [Example 144, 5′-((3-endo)-3-amino-8-azabicyclo[3.2.1]octane-8-carbonyl)-2″,3,3″-trifluoro-4″-methyl-[1,1′:2′,1″-terphenyl]-4-carbonitrile]			IC50 (HEL cells): 0.27 nM
CN1CCc2cc(-c3ccc(C(=O)N4CC[C@H](N)C4)cc3-c3ccc(C#N)c(F)c3)ccc21 [Example 117, 4-[5-[(3S)-3-aminopyrrolidine-1-carbonyl]-2-(1-methylindolin-5-yl)phenyl]-2-fluoro-benzonitrile]	5.54		
